For twelve compounds, EC50 results are on record in patent US12600709B2, “Nonpeptide somatostatin type 5 receptor agonists and uses thereof” (Crinetics Pharmaceuticals, Inc., priority 2019, dated 2026).

The assay concerns the target T1, human somatostatin receptor subtype 5 (Homo sapiens, UniProt P35346).
T1 construct: expressed in transfected cells
As to the kind of experiment: cAMP assay for SST5R (inhibition of cAMP in CHO-K1 cells). It is filed as cell-based. The conditions noted are these: inhibition of cAMP via human SST5 receptor, read-out: SST5 potency. An outline of the steps:
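CHO-K1 cells stably expressing human SSTR5 were treated 20 min at 37 °C with compounds plus 1.6 μM NKH477 in HBSS, 0.5 mM HEPES pH 7.4, 0.1% BSA, 0.2 mM IBMX. Lysate cAMP measured by HTRF against a standard curve; EC50 from cAMP-versus-concentration plots.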
Background: Cyclic AMP is a second messenger, typically raised through Gs and lowered through Gi signalling.

pEC50: −log10 of the molar value. Where two headings read alike, the source gives them in different places.

T1 sequence (P35346 whole entry): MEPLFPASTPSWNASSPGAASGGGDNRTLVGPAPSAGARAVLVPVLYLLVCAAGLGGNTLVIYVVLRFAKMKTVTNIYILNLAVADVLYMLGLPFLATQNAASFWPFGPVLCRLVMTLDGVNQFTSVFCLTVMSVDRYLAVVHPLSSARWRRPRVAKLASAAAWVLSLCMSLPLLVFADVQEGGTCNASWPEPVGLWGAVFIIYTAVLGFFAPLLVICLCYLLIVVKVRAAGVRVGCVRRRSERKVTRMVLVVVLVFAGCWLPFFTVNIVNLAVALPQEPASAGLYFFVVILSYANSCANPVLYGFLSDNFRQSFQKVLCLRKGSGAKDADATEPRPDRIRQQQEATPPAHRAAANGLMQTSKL

For `N[C@H]1CCN(c2c(C(=O)NC3CCC(F)(F)CC3)cnc(OCCC(=O)O)c2-c2cc(F)cc(F)c2)C1` [1-204, 3-({4-[(3S)-3-aminopyrrolidin-1-yl]-5-[(4,4-difluorocyclohexyl)carbamoyl]-3-(3,5-difluorophenyl)pyridin-2-yl}oxy)propanoic acid], the pEC50 (Table A) is below 6.00. Still for that read-out and setting: next, `CN(CC1CC1)C(=O)c1cnc(C#N)c(-c2cc(F)cc(F)c2)c1N1CC[C@](C)(N)C1` [1-218, 4-[(3S)-3-amino-3-methylpyrrolidin-1-yl]-6-cyano-N-(cyclopropylmethyl)-5-(3,5-difluorophenyl)-N-methylpyridine-3-carboxamide]: 6.00 to 7.00. For the compound `Cc1ncc(C(=O)N[C@@H](C)C2CC2)c(N2CC[C@](C)(N)C2)c1-c1cnn(CC(F)(F)F)c1` [1-155, 4-[(3S)-3-amino-3-methylpyrrolidin-1-yl]-N-[(1S)-1-cyclopropylethyl]-6-methyl-5-[1-(2,2,2-trifluoroethyl)-1H-pyrazol-4-yl]pyridine-3-carboxamide], the pEC50 (Table A) is below 6.00 and the pEC50 (Table B) was below 6.00.

Turning to `Cc1cccc2[nH]c(-c3cncc(C(=O)NC4CCC(F)(F)CC4)c3N3CC[C@](C)(N)C3)nc12` [2-17, 4-[(3S)-3-amino-3-methylpyrrolidin-1-yl]-N-(4,4-difluorocyclohexyl)-5-(4-methyl-1H-1,3-benzodiazol-2-yl)pyridine-3-carboxamide], under “Table A”, the pEC50 is 7.00 to 8.00. On the same count and under the same terms, next, `Cc1cccc2[nH]c(-c3cncc(C(=O)N4CCC5(CC5)C4)c3N3CC[C@](C)(N)C3)nc12` [2-39, (3S)-1-(3-{5-azaspiro[2.4]heptane-5-carbonyl}-5-(4-methyl-1H-1,3-benzodiazol-2-yl)pyridin-4-yl)-3-methylpyrrolidin-3-amine]: 7.00 to 8.00; `COc1ncc(C(=O)NC2CCC(C(F)(F)F)CC2)c(N2CC[C@H](N)C2)c1-c1cc(F)cc(F)c1` (stereo partly drawn) [1-193, 4-[(3S)-3-aminopyrrolidin-1-yl]-5-(3,5-difluorophenyl)-6-methoxy-N-[4-(trifluoromethyl)cyclohexyl]pyridine-3-carboxamide]: 6.00 to 7.00; `C[C@H](NC(=O)c1cnc(C#N)c(-c2cc(F)cc(Cl)c2)c1N1C[C@@H](N)[C@H](F)C1)C1CC1` [1-138, 4-[(3R,4R)-3-amino-4-fluoropyrrolidin-1-yl]-5-(3-chloro-5-fluorophenyl)-6-cyano-N-[(1S)-1-cyclopropylethyl]pyridine-3-carboxamide]: above 8.00.

Consider `COc1ncc(C(=O)NC2CCC(F)(F)CC2)c(N2CC[C@](C)(N)C2)c1-c1cc(F)cc(F)c1` [1-144, 4-[(3S)-3-amino-3-methylpyrrolidin-1-yl]-N-(4,4-difluorocyclohexyl)-5-(3,5-difluorophenyl)-6-methoxypyridine-3-carboxamide], for which the pEC50 (Table A) is above 8.00.

Consider `C[C@H](NC(=O)c1cnc(C#N)c(-c2cc(F)cc(Cl)c2)c1N1C[C@H](N)[C@@H](F)C1)C1CC1` (single isomer, unassigned) [1-139], for which the pEC50 (Table A) was above 8.00. On to `C[C@]1(N)CCN(c2c(C(=O)NCC3CC3(F)F)cncc2-c2cc(F)cc(F)c2)C1` (stereo partly drawn) [1-42, 4-[(3S)-3-amino-3-methylpyrrolidin-1-yl]-N-[(2,2-difluorocyclopropyl)methyl]-5-(3,5-difluorophenyl)pyridine-3-carboxamide], for which the pEC50 (Table A) is above 8.00.

Turning to `C[C@]1(N)CCN(c2c(C(=O)NC(C3CCC3)C(F)(F)F)cncc2-c2cc(F)cc(F)c2)C1` (stereo partly drawn) [1-56, 4-[(3S)-3-amino-3-methylpyrrolidin-1-yl]-N-(1-cyclobutyl-2,2,2-trifluoroethyl)-5-(3,5-difluorophenyl)pyridine-3-carboxamide], the pEC50 (Table A) is above 8.00. The same measure, in the same setting: next, `C[C@@H](C1CC1)N(C)C(=O)c1cnc(C#N)c(-c2cc(F)cc(F)c2)c1N1CC[C@](C)(N)C1` [1-219, 4-[(3S)-3-amino-3-methylpyrrolidin-1-yl]-6-cyano-N-[(1S)-1-cyclopropylethyl]-5-(3,5-difluorophenyl)-N-methylpyridine-3-carboxamide]: above 8.00.
